Assay [1] relates to H1299 cells. The assay is described as follows: Anti-proliferative effect on H1299 cells by Cell Titer-Glo. The format is cell-based. Particulars: Homo sapiens, NCI-H1299, 72 h, 3 days, read-out: H1299 (IC50, inhibition of proliferation in vitro). As for the experimental part:
(§1) Test Example 2: Evaluation of Cell Proliferation Inhibitory Activity
1. Evaluation of the Anti-Proliferative Effect of Compounds on H1299 Cells by the Cell Titer-Glo Method
(§2) Compound solutions of different concentration gradients were prepared. […] The cell growth group without compound was used as a positive control (maximum signal control) and the medium was used as a negative control (minimum signal control), while ensuring that the final level of DMSO in each reaction well was 0.2%. After removing the medium from the 384-well plate, 25 ul of the configured compound at different concentrations was transferred into the well plate and the compound and cells were incubated in the cell incubator at 37° C. with 5% CO2 for 3 days.
The 384-well plates were removed from the cell incubator and allowed to equilibrate for 1h to room temperature. 25 ul of Cell Titer-Glo assay was added to each well, lysed on a shaker for 2 min and then read out (Luminescence) using a BMG PHERAStar after 10 min incubation. Calculate the inhibition rate from the luminescence signal: first calculate the average of the positive control (maximum signal control) and the negative control (minimum signal control).
was used to calculate the rate of inhibition of the cells by different concentrations of the compounds. The IC50 of the compound on cell activity inhibition was calculated by fitting a log(inhibitor) vs. response-Variable slope model to GraphPad Prism 6. The fitted equation was: Y=Bottom+(Top−Bottom)/(1+10^((Log IC50−X)*HillSlope)), where Y represents the rate of inhibition and X represents the concentration of the known compound after Log.
(§3) The results of the in vitro anti-cell proliferation assays of H1299 and MIA Paca-2 for the example compounds according to the method described above are shown in Table 2, wherein the IC50 of each compound was determined and classified according to the description as follows: […]
(Cellular ATP, detected with luciferase, serves as a proxy for viable cell number.)

Assay [2] has as its target T1, Wee1 protein (Homo sapiens, UniProt P30291).
T1 construct: purchased Thermo Fisher PR7373A
The assay is described as follows: Binding of compound to Wee1 protein and Tracer 178 by TR-FRET (Wee1 kinase inhibitory activity). Particulars: 15 nM WEE1, 50 nM Tracer 178, read-out: IC50 (inhibitory activity against Wee1 kinase). The protocol:
First, solutions of the compounds in different concentration gradients were prepared. The compounds were dissolved in DMSO and the compounds were diluted 4 folds with a total of 10 dose points and 2 parallel replicates for each concentration.
The IC50 for inhibition of enzyme activity by the compounds was then calculated using GraphPad Prism 6 and fitted with a log (inhibitor) vs. response-Variable slope mode. The fitting equation was: Y=Bottom+(Top−Bottom)/(1+10^((Log IC50−X)*HillSlope)), wherein Y represents the percentage of residual enzyme activity known and X represents the known concentration of compound after the logarithm.

Assay [3] has as its system MIA PaCa2 cells. The assay is described as follows: Anti-proliferative effect on MIA PaCa2 cells by Cell Titer-Glo. Type of assay: cell-based. Particulars: Homo sapiens, MIA PaCa-2, 72 h, 3 days, read-out: MIA PaCa 2 (IC50, inhibition of proliferation in vitro). As for the experimental part: as §1
2. Evaluation of the Anti-Proliferative Effect of Compounds on MIA PaCa2 Cells by the Cell Titer-Glo Method
as §2
The 384-well plates were removed from the cell incubator and allowed to equilibrate for 1 h to room temperature. 25 ul of Cell Titer-Glo assay was added to each well, lysed on a shaker for 2 min and then read out (Luminescence) using a BMG PHERAStar after 10 min incubation. Calculate the inhibition rate from the luminescence signal: first calculate the average of the positive control (maximum signal control) and the negative control (minimum signal control).
was used to calculate the rate of inhibition of the cells by different concentrations of the compounds. The IC50 of the compound on cell activity inhibition was calculated by fitting a log(inhibitor) vs. response-Variable slope model to GraphPad Prism 6. The fitted equation was: Y=Bottom+(Top-Bottom)/(1+10^((Log IC50−X)*HillSlope)), wherein Y represents the rate of inhibition and X represents the concentration of the known compound after Log.
as §3

IC50 data for 28 compounds are collected here from US20250034151A1, “WEE1 INHIBITOR, PREPARATION THEREFOR, AND USE THEREOF” (JIANGSU TASLY DIYI PHARMACEUTICAL CO., LTD., priority 2022, published 2025).

pIC50: −log10 of the molar value. Where only a bound is given, the exact number is not on record here.

T1 sequence (P30291 whole entry): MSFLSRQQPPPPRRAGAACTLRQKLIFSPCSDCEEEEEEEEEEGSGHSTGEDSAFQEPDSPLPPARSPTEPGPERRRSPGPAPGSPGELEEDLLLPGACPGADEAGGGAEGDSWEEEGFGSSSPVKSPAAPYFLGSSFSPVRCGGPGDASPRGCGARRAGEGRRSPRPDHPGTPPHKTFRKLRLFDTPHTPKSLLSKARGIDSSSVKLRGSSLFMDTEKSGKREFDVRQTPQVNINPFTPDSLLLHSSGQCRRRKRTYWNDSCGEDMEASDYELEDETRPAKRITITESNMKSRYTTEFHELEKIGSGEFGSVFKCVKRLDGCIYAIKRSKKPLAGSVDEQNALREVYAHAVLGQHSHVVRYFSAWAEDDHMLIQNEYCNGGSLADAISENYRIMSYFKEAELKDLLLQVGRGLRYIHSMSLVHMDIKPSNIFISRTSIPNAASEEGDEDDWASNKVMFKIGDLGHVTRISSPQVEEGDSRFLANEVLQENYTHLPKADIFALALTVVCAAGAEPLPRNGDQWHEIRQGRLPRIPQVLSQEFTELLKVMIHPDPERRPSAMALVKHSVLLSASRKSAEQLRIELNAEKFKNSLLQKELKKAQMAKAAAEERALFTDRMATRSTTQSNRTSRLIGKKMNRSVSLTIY

Regarding `C=CCn1c(=O)c2cnc(Nc3ccc(N4CC5CC(CN(Cc6ccccc6)C5)C4)cc3)nc2n1-c1cccc(C(C)(C)O)n1` [Compound 22], the pIC50 in assay [1] was 6.00 to 7.00; in assay [2], 7.00 to 8.00; in assay [3] it was 5.70 to 6.00.
On to `C=CCn1c(=O)c2cnc(Nc3ccc(C4CCN(C)CC4)cc3)nc2n1-c1ccc2ccn(CC)c2n1` [Compound 77], for which the values for the pIC50 in assay [1], in assay [2] and in assay [3] were 5.70 to 6.00, 8.00 to 8.30 and 5.70 to 6.00, respectively.
Regarding `C=CCn1c(=O)c2cnc(Nc3ccc(N4CCN(C)CC4)cc3)nc2n1-c1ccc2c(n1)OC(C)(C)CO2` [Compound 74], the pIC50 is under 5.00 in assay [1], 7.00 to 8.00 in assay [2] and under 5.00 in assay [3].
`C=CCn1c(=O)c2cnc(Nc3ccc(N4CC5CC(C4)N5C)c(F)c3)nc2n1-c1cccc(C(C)(C)O)n1` [Compound 78]: the pIC50 was under 5.00 in assay [1], 7.00 to 8.00 in assay [2] and 5.70 to 6.00 in assay [3].
In the same order, the values of `C=CCn1c(=O)c2cnc(Nc3ccc(N4CC5CC(CN(CCOC)C5)C4)cc3)nc2n1-c1cccc(C(C)(C)O)n1` [Compound 34] are 5.00 to 5.30, 7.00 to 8.00 and 5.30 to 5.70.
Regarding `C=CCn1c(=O)c2cnc(Nc3ccc(-n4cc(N5CCCC5)cn4)cc3)nc2n1-c1cccc(C(C)(C)O)n1` [Compound 55], the pIC50 was 5.70 to 6.00 in assay [1], 7.00 to 8.00 in assay [2] and 5.70 to 6.00 in assay [3].
`C=CCn1c(=O)c2cnc(Nc3ccc(N4CC5CC(C4)N5CC)cc3)nc2n1-c1cccc(C(C)(C)O)n1` [Compound 65]: the pIC50 is 6.00 to 7.00 in assay [1], 8.00 to 8.30 in assay [2] and 6.00 to 7.00 in assay [3].
Turning to `C=CCn1c(=O)c2cnc(Nc3ccc(N4C[C@H]5C[C@@H]4CO5)cc3)nc2n1-c1cccc(C(C)(C)O)n1` [Compound 20], the values for the pIC50 in assay [1], in assay [2] and in assay [3] were 6.00 to 7.00, 8.00 to 8.30 and 5.70 to 6.00, respectively.
As for `C=CCn1c(=O)c2cnc(Nc3ccc([C@@H]4C[C@]45C(=O)C4CCN5CC4)cc3)nc2n1-c1cccc(N=S(C)(C)=O)n1` [Compound 47b], the pIC50 was 5.30 to 5.70 in assay [1], 7.00 to 8.00 in assay [2] and 5.30 to 5.70 in assay [3].
As to `C=CCn1c(=O)c2cnc(Nc3ccc(N4C[C@@H]5C[C@H]4CN5C)cc3)nc2n1-c1ccc2ccn(CC)c2n1` [Compound 76], the results for the pIC50 in assay [1], in assay [2] and in assay [3] were 6.00 to 7.00, 7.00 to 8.00 and 5.70 to 6.00, respectively.
Regarding `C=CCn1c(=O)c2cnc(Nc3ccc(N4CC5CCC(C4)O5)cc3)nc2n1-c1cccc(C(C)(C)O)n1` [Compound 17], the values for the pIC50 in assay [1], in assay [2] and in assay [3] were 6.00 to 7.00, 8.00 to 8.30 and 5.70 to 6.00, respectively.
As to `C=CCn1c(=O)c2cnc(Nc3ccc(N4CC5CC(C4)N5CCO)cc3)nc2n1-c1cccc(C(C)(C)O)n1` [Compound 66], the pIC50 in assay [1] was 6.00 to 7.00; in assay [2], 8.00 to 8.30; in assay [3], 6.00 to 7.00.
On to `C=CCn1c(=O)c2cnc(Nc3ccc(C4CC45C(=O)C4CCN5CC4)cc3)nc2n1-c1cccc(C(C)(C)O)n1` (stereo not drawn) [Compound 32], for which the pIC50 in assay [1] is 5.30 to 5.70; in assay [2], 7.00 to 8.00; in assay [3] it was 5.30 to 5.70.
In the case of `C=CCn1c(=O)c2cnc(Nc3ccc(N4C[C@@H]5C[C@H]4CN5CC(F)(F)F)cc3)nc2n1-c1cccc(C(C)(C)O)n1` [Compound 30], the pIC50 in assay [1] was 5.70 to 6.00; in assay [2], over 8.30; in assay [3], 5.70 to 6.00.
On to `C=CCn1c(=O)c2cnc(Nc3ccc(-n4cc(N(C)C)cn4)cc3)nc2n1-c1cccc(C(C)(C)O)n1` [Compound 36], for which the figures for the pIC50 in assay [1], in assay [2] and in assay [3] were 5.70 to 6.00, 7.00 to 8.00 and 5.70 to 6.00, respectively.
For `C=CCn1c(=O)c2cnc(Nc3ccc(N4CC5CC(C4)N5C4CN(C)C4)cc3)nc2n1-c1cccc(C(C)(C)O)n1` [Compound 63], the values for the pIC50 in assay [1], in assay [2] and in assay [3] were under 5.00, 5.00 to 6.00 and under 5.00, respectively.
Regarding `C=CCn1c(=O)c2cnc(Nc3ccc(N4CC5CC4CN5C4CCN(C)CC4)c(C)c3)nc2n1-c1cccc(C(C)(C)O)n1` (stereo not drawn) [Compound 21], the values for the pIC50 in assay [1], in assay [2] and in assay [3] were 5.70 to 6.00, 7.00 to 8.00 and 6.00 to 7.00, respectively.
In the same order, the values of `C=CCn1c(=O)c2cnc(Nc3ccc(N4CC5CC(C4)N5C4COC4)cc3)nc2n1-c1cccc(C(C)(C)O)n1` [Compound 58] are 6.00 to 7.00, 8.00 to 8.30 and 6.00 to 7.00.
The like results for `C=CCn1c(=O)c2cnc(Nc3ccc([C@H]4C[C@@]45C(=O)C4CCN5CC4)cc3)nc2n1-c1cccc(N=S(C)(C)=O)n1` [Compound 47a] were, in that order, 6.00 to 7.00, 7.00 to 8.00 and 5.70 to 6.00.
For the compound `C=CCn1c(=O)c2cnc(Nc3ccc(C4(O)CCN(C)CC4)cc3)nc2n1-c1cccc(C(C)(C)O)n1` [Compound 35], the pIC50 in assay [1] was 5.30 to 5.70; in assay [2], 7.00 to 8.00; in assay [3], 5.70 to 6.00.
For `C=CCn1c(=O)c2cnc(Nc3ccc(N4CCN(C)c5ccccc54)cc3)nc2n1-c1cccc(C(C)(C)O)n1` [Compound 50], the values for the pIC50 in assay [1], in assay [2] and in assay [3] were 5.00 to 5.30, 6.00 to 7.00 and under 5.00, respectively.
For `C=CCn1c(=O)c2cnc(Nc3ccc(N4CC5CC(C4)N5C)cc3)nc2n1-c1cccc(C(C)(C)OC)n1` [Compound 60], the pIC50 in assay [1] was 6.00 to 7.00; in assay [2] it was 8.00 to 8.30; in assay [3] it was 6.00 to 7.00.
Consider `C=CCn1c(=O)c2cnc(Nc3ccc(N4C[C@@H]5C[C@H]4CN5C(C)C)cc3)nc2n1-c1cccc(C(C)(C)O)n1` [Compound 41], for which the figures for the pIC50 in assay [1], in assay [2] and in assay [3] were 6.00 to 7.00, 7.00 to 8.00 and 6.00 to 7.00, respectively.
`C=CCn1c(=O)c2cnc(Nc3ccc(N(CC)CC(=O)NC)cc3)nc2n1-c1cccc(C(C)(C)O)n1` [Compound 13]: the pIC50 was 5.00 to 5.30 in assay [1], 8.00 to 8.30 in assay [2] and 5.00 to 5.30 in assay [3].
In the case of `C=CCn1c(=O)c2cnc(Nc3ccc(N(C)[C@H]4CN5CCC4CC5)cc3)nc2n1-c1cccc(C(C)(C)O)n1` [Compound 29], the pIC50 in assay [1] was under 5.00; in assay [2], 8.00 to 8.30; in assay [3], under 5.00.
Take `C=CCn1c(=O)c2cnc(Nc3ccc(N(CC)CC(=O)N4CCN(C)CC4)cc3)nc2n1-c1cccc(C(C)(C)O)n1` [Compound 14]: the pIC50 in assay [1] was 5.00 to 5.30; in assay [2], 8.00 to 8.30; in assay [3] it was 5.30 to 5.70.
As to `C=CCn1c(=O)c2cnc(Nc3ccc(C4CC45C(=O)C4CCN5CC4)cc3)nc2n1-c1cccc(N=S(C)(C)=O)n1` (stereo not drawn) [Compound 47], the figures for the pIC50 in assay [1], in assay [2] and in assay [3] were 6.00 to 7.00, over 8.30 and 6.00 to 7.00, respectively.
With `C=CCn1c(=O)c2cnc(Nc3ccc(N4CC5CC(C4)N5CCOC)cc3)nc2n1-c1cccc(C(C)(C)O)n1` [Compound 67], the pIC50 is 6.00 to 7.00 in assay [1], 8.00 to 8.30 in assay [2] and at least 7.00 in assay [3].
